Format in all cases: cell-based
For assay [1], the target named is T1, human A3 receptor (Homo sapiens, UniProt P0DMS8).
T1 construct: expressed in transfected cells; host or cells: CHO
T1 sequence (P0DMS8 1-318): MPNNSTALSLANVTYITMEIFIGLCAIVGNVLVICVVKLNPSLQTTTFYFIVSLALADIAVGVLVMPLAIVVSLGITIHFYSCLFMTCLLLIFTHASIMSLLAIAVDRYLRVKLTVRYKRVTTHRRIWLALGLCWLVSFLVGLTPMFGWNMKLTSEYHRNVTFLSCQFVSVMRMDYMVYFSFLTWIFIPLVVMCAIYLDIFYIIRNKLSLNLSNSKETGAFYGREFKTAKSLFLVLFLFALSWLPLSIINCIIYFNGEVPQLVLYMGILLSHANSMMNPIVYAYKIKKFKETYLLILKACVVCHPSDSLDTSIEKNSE
The assay is described as follows: functional cAMP (HTRF) assay, recombinant CHO cells expressing human A3 receptor, forskolin, agonist IB-MECA. How it is done: The functional activities of human A2A, A2B, A1 and A3 receptors were determined by quantification of cAMP, being the second messenger for adenosine receptors.
For human A1 and A3 receptors, recombinant CHO cells, expressing either A1 or A3-receptor, were used. As both receptors couple to Gi proteins, the assay protocol was adapted:
Cells were seeded into 384-well plates, forskolin, test compounds and agonists (CPA for A1- and IB-MECA for A3-receptor) were added. After 30 min incubation, HTRF reagents (cAMP dynamic 2, Cis Bio) were added and the cellular cAMP levels were determined using the ENVISION (Perkin Elmer) plate reader. Obtained raw data were normalized against the inhibitor control and the neural control (DMSO) and the normalized data were fitted using GeneData software.
(In general: TR-FRET usually uses a lanthanide donor and a delayed reading to cut background.)

The target in assay [2] is T2, human A2A receptor (Homo sapiens, UniProt P29274).
T2 construct: expressed in transfected cells; host or cells: HEK293
T2 sequence (P29274 whole entry): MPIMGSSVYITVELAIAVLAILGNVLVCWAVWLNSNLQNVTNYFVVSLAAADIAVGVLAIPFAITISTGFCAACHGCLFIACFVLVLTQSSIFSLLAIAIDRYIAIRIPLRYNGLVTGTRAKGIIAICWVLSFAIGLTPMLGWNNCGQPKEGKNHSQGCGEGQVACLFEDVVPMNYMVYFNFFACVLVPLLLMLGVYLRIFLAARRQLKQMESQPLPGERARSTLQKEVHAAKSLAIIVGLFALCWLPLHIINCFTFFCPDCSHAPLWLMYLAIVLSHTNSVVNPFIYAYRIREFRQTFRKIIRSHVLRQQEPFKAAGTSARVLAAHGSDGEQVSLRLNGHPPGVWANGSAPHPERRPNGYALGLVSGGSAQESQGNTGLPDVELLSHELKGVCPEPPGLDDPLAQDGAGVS
Briefly: functional cAMP (HTRF) assay, recombinant HEK293 cells expressing human A2A receptor, agonist NECA.

In assay [3] the target is T3, A2B receptors (Homo sapiens, UniProt P29275).
T3 sequence (P29275 1-332): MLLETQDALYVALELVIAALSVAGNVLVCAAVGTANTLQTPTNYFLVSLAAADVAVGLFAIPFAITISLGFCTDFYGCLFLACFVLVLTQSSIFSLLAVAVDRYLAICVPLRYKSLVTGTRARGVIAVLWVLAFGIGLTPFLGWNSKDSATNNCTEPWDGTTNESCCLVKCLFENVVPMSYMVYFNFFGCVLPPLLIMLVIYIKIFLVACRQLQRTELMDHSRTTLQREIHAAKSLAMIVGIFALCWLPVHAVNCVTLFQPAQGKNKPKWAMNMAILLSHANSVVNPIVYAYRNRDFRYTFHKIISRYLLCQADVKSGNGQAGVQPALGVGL
Briefly: functional cAMP (HTRF) assay, recombinant HEK293 cells expressing human A2B receptor, agonist NECA. Further details: expressed in transfected cells; host or cells: HEK293.

The structures appear in SMILES notation.

With `COc1ccc(N2CCCOCC2)c2nc(NC(=O)c3ccc(C(=O)N(C)C)cc3)[nH]c12` [compound 313, N4-[7-methoxy-4-(1,4-oxazepan-4-yl)-1H-1,3-benzodiazol-2-yl]-N1,N1-dimethylbenzene-1,4-dicarboxamide], the half-inhibitory concentration (IC50) (as a rule, the concentration needed to halve the response being measured) in assay [1] is above 1000 nM; in assay [2], below 10 nM; in assay [3] it was above 1000 nM.

For `COc1ccc(-c2cnn(C)c2)c2nc(NC(=O)NCc3nccs3)[nH]c12` [compound 247, 3-[7-methoxy-4-(1-methyl-1H-pyrazol-4-yl)-1H-1,3-benzodiazol-2-yl]-1-[(1,3-thiazol-2-yl)methyl]urea], the half-maximal inhibitory concentration (IC50) in assay [1] was above 1000 nM; in assay [2] it was below 100 nM.

Consider `COc1ccc(-c2cnn(CC(C)(C)O)c2)c2[nH]c(NC(=O)N3CCC(C)(O)CC3)nc12` [compound 238, 4-hydroxy-N-{7-[1-(2-hydroxy-2-methylpropyl)-1H-pyrazol-4-yl]-4-methoxy-1H-1,3-benzodiazol-2-yl}-4-methylpiperidine-1-carboxamide], for which the half-maximal inhibitory concentration (IC50) in assay [1] is above 1000 nM; in assay [2], below 100 nM.

In the case of `COc1cc(C#N)c(-c2ccccc2)c2nc(NC(=O)c3cnn(C)c3)[nH]c12` [compound 300, N-(5-cyano-7-methoxy-4-phenyl-1H-1,3-benzodiazol-2-yl)-1-methyl-1H-pyrazole-4-carboxamide], the IC50 in assay [2] and in assay [3] was below 100 nM throughout.

`COc1ccc(-c2ccccc2)c2nc(NC(=O)c3cnc(C)o3)[nH]c12` [compound 308, N-(7-methoxy-4-phenyl-1H-1,3-benzodiazol-2-yl)-2-methyl-1,3-oxazole-5-carboxamide]: the IC50 in assay [2] and in assay [3] was below 100 nM throughout.

On to `COc1ccc(-c2ccccc2)c2[nH]c(NC(=O)c3ccc(C(=O)N4CCOCC4)cc3)nc12` [compound 298, N-(4-methoxy-7-phenyl-1H-1,3-benzodiazol-2-yl)-4-(morpholine-4-carbonyl)benzamide], for which the IC50 in assay [1] is below 1000 nM; in assay [2], below 100 nM; in assay [3], below 10 nM.

Take `COCCn1cc(C(=O)Nc2nc3c(-c4ccn5ccnc5c4)ccc(OC)c3[nH]2)cn1` [compound 301, N-(4-{imidazo[1,2-a]pyridin-7-yl}-7-methoxy-1H-1,3-benzodiazol-2-yl)-1-(2-methoxyethyl)-1H-pyrazole-4-carboxamide]: the figures for the IC50 in assay [1] and in assay [2] were below 1000 nM and below 100 nM, respectively.

In the case of `COc1ccc(-c2ccccc2)c2nc(NC(=O)c3cnn(C)c3)[nH]c12` [compound 306, N-(7-methoxy-4-phenyl-1H-1,3-benzodiazol-2-yl)-1-methyl-1H-pyrazole-4-carboxamide], the IC50 in assay [2] is below 100 nM; in assay [3] it was below 10 nM.

In the case of `COCCn1cc(C(=O)Nc2nc3c(-c4cccc5cc[nH]c45)ccc(OC)c3[nH]2)cn1` [compound 304, N-[4-(1H-indol-7-yl)-7-methoxy-1H-1,3-benzodiazol-2-yl]-1-(2-methoxyethyl)-1H-pyrazole-4-carboxamide], the half-inhibitory concentration (IC50) in assay [1] was below 1000 nM; in assay [2] it was below 100 nM; in assay [3], below 100 nM.

For the compound `COc1ccc(-c2ccccc2)c2[nH]c(NC(=O)c3ccc(C(=O)N4CCN(C)CC4)cc3)nc12` [compound 294, N-(4-methoxy-7-phenyl-1H-1,3-benzodiazol-2-yl)-4-(4-methylpiperazine-1-carbonyl)benzamide], the half-maximal inhibitory concentration (IC50) in assay [1] is below 1000 nM; in assay [2] it was below 100 nM; in assay [3], below 10 nM.

As for `COc1ccc(-c2ccccc2)c2nc(NC(=O)c3ccnc(Br)c3)[nH]c12` [compound 3, 2-Bromo-N-(7-methoxy-4-phenyl-1H-benzoimidazol-2-yl)-isonicotinamide], the IC50 in assay [1] is below 10 nM; in assay [2] it was below 10 nM; in assay [3], below 100 nM.

With `COc1ccc(C2CCOCC2)c2nc(NC(=O)c3cccc(N=S(C)(C)=O)c3)[nH]c12` [compound 263, 3-{[dimethyl(oxo)-lambda6-sulfanylidene]amino}-N-[7-methoxy-4-(oxan-4-yl)-1H-1,3-benzodiazol-2-yl]benzamide], the IC50 in assay [1] is above 1000 nM; in assay [2] it was below 100 nM.

Regarding `COCCn1cc(C(=O)Nc2nc3c(-c4ccc5cc[nH]c5c4)ccc(OC)c3[nH]2)cn1` [compound 280, N-[4-(1H-indol-6-yl)-7-methoxy-1H-1,3-benzodiazol-2-yl]-1-(2-methoxyethyl)-1H-pyrazole-4-carboxamide], the IC50 in assay [2] and in assay [3] was below 100 nM throughout.

For `COc1ccc(-c2cnn(C)c2)c2nc(NC(=O)c3cnc(C)o3)[nH]c12` [compound 215, N-[7-methoxy-4-(1-methyl-1H-pyrazol-4-yl)-1H-1,3-benzodiazol-2-yl]-2-methyl-1,3-oxazole-5-carboxamide], the half-inhibitory concentration (IC50) in assay [2] is below 10 nM; in assay [3], below 100 nM.

`COCCn1cc(C(=O)Nc2nc3c(-c4ccccc4)ccc(OC)c3[nH]2)cn1` [compound 307, N-(7-methoxy-4-phenyl-1H-1,3-benzodiazol-2-yl)-1-(2-methoxyethyl)-1H-pyrazole-4-carboxamide]: the IC50 in assay [2] is below 100 nM; in assay [3], below 10 nM.

In the case of `COc1ccc(-c2ccccc2)c2nc(NC(=O)c3cnc4ccccn34)[nH]c12` [compound 286, N-(7-methoxy-4-phenyl-1H-1,3-benzodiazol-2-yl)imidazo[1,2-a]pyridine-3-carboxamide], the IC50 in assay [2] and in assay [3] was below 100 nM each time.

Regarding `COc1ccc(-c2ccccc2)c2nc(NC(=O)c3cnc4ncccn34)[nH]c12` [compound 289, N-(7-methoxy-4-phenyl-1H-1,3-benzodiazol-2-yl)imidazo[1,2-a]pyrimidine-3-carboxamide], the half-inhibitory concentration (IC50) in assay [2] is below 100 nM; in assay [3], below 10 nM.

Turning to `COCCn1cc(C(=O)Nc2nc3c(-c4ccc5[nH]ccc5c4)ccc(OC)c3[nH]2)cn1` [compound 302, N-[4-(1H-indol-5-yl)-7-methoxy-1H-1,3-benzodiazol-2-yl]-1-(2-methoxyethyl)-1H-pyrazole-4-carboxamide], the IC50 in assay [2] and in assay [3] was below 100 nM in each case.

For `COc1ccc(-c2ccccc2)c2nc(NC(=O)c3ccc(C(=O)N(C)C)cc3)[nH]c12` [compound 309, N4-(7-methoxy-4-phenyl-1H-1,3-benzodiazol-2-yl)-N1,N1-dimethylbenzene-1,4-dicarboxamide], the results for the IC50 in assay [2] and in assay [3] were below 100 nM and below 10 nM, respectively.

On to `COc1ccc(-c2cccc(F)c2)c2nc(NC(=O)c3cnn(C)c3)[nH]c12` [compound 239, N-[4-(3-fluorophenyl)-7-methoxy-1H-1,3-benzodiazol-2-yl]-1-methyl-1H-pyrazole-4-carboxamide], for which the IC50 in assay [2] and in assay [3] was below 10 nM in each case.

Take `COc1ccc(-c2cnn(C)c2)c2nc(NC(=O)N[C@@H]3CNC[C@@H]3F)[nH]c12` [compound 249, 1-[(3R,4S)-4-fluoropyrrolidin-3-yl]-3-[7-methoxy-4-(1-methyl-1H-pyrazol-4-yl)-1H-1,3-benzodiazol-2-yl]urea]: in assay [2], the IC50 was below 100 nM.

For the compound `COc1ccc(-c2ccccc2)c2nc(NC(=O)c3c[nH]c(-c4ccncc4)n3)[nH]c12` [compound 290, N-(7-methoxy-4-phenyl-1H-1,3-benzodiazol-2-yl)-2-(pyridin-4-yl)-1H-imidazole-4-carboxamide], the IC50 in assay [2] and in assay [3] was below 100 nM throughout.

For `COc1ccc(-c2ccc3[nH]ccc3c2)c2nc(NC(=O)N3CCC(C)(O)CC3)[nH]c12` [compound 303, 4-hydroxy-N-[4-(1H-indol-5-yl)-7-methoxy-1H-1,3-benzodiazol-2-yl]-4-methylpiperidine-1-carboxamide], the concentration for half-maximal inhibition (IC50) was above 1000 nM in assay [1] and below 100 nM in assay [2].

For `COc1ccc(-c2ccnc(C)c2)c2[nH]c(NC(=O)c3c[nH]cn3)nc12` [compound 299, N-[4-methoxy-7-(2-methylpyridin-4-yl)-1H-1,3-benzodiazol-2-yl]-1H-imidazole-4-carboxamide], the IC50 in assay [2] and in assay [3] was below 100 nM each time.

In the case of `COc1ccc(-c2cnn(C)c2)c2nc(NC(=O)C3CNC(=O)C3)[nH]c12` (stereo not drawn) [compound 246, N-[7-methoxy-4-(1-methyl-1H-pyrazol-4-yl)-1H-1,3-benzodiazol-2-yl]-5-oxopyrrolidine-3-carboxamide], the IC50 is above 1000 nM in assay [1] and below 100 nM in assay [2].

Values taken from patent US11453647B2, “Benzimidazole derivatives as adenosine receptor antagonists” (Merck Patent GmbH, priority 2017, dated 2022).
